Measurements: patent US20110027785A1, “METHOD FOR DETERMINING SUSCEPTIBILITY OF INDIVIDUALS TO POLYPHENOLS” (CONOPCO, INC., D/B/A UNILEVER, priority 2009, published 2011)

Test system: male participants
Test: Diastolic blood pressure pre- and post-treatment, 8 week EGCG study stratified by COMT genotype
Assay type: in vivo, human
Conditions: 800 mg/day EGCG, 8 weeks
Text: This was a double blind, single centre, randomised and parallel design study. A total of 95 male participants were recruited on to the study using the following criteria: • healthy (no significant history or current disease or medication) • non-diabetic • non-smokers • aged 40-65 years • Body Mass Index >28 <38 The study population were randomly assigned to one of two treatment groups. Each group was balanced for age and insulin resistance (homeostatic model of insulin resistance HOMAir). HOMAir was measured from mean fasting plasma glucose values as described by Mathews et al, Diabetologia (1985), 28, 412-419. 75 subjects consented to genotype analysis for the COMT polymorphism rs4680. The active treatment was 800 mg/day EGCG and the placebo treatment 800 mg/day lactose. Treatments were administered twice daily with food for 8 weeks, one 400 mg capsule in the morning and one 400 mg capsule in the evening. The diastolic blood pressure was measured pre- and post-treatment. During the three days before pre- and post-treatment study visits, participants refrained from exercise, alcohol and ate their normal diet which consisted of at least 150 g carbohydrates. Blood pressure was measured manually on the upper arm using a sphygmomanometer (UA-787, A and D Medical). Three measurements were taken at 5 minute intervals whilst participants rested in a semi-recumbent position and with participants rested for at least 5 minutes before the first measurement. All three measurements were used to derive mean blood pressure values. Non-smoking status and alcohol abstinence were verified using Micro CO meter (Micro Medical Ltd) and AlcoMate Pro (AK Solutions) monitors, respectively. All equipment was calibrated before use. The data was stratified based on the derived COMT genotype and analysed. For each treatment group and genotype subset the mean and standard deviation for the change from baseline to endpoint was calculated. Paired t-tests were used to assess whether the change from baseline was statistically significant (p<0.05).

SMILES: O=C(O[C@@H]1Cc2c(O)cc(O)cc2O[C@@H]1c1cc(O)c(O)c(O)c1)c1cc(O)c(O)c(O)c1 [EGCG, epigallocatechin gallate]
- diastolic blood pressure, change compared to baseline (AA (low activity) COMT genotype, paired t-test p=0.036): Statistically significant reductions
- LSMean change from baseline in diastolic blood pressure, controlled for baseline (AA COMT genotype, p=0.044): statistically significant reduction
- diastolic blood pressure, change compared to baseline (AG (intermediate activity) COMT genotype, paired t-test p=0.006): Statistically significant reductions
- LSMean change from baseline in diastolic blood pressure, controlled for baseline (AG COMT genotype, p=0.012): statistically significant reduction
- diastolic blood pressure, change compared to baseline (GG (high activity) COMT genotype, paired t-test p=0.647): not statistically significant
- LSMean change from baseline in diastolic blood pressure, controlled for baseline (GG COMT genotype): not the GG group
